Usually IC50 stands for the concentration at which inhibition is half-maximal.

In the experiment the target is T1, AR (Homo sapiens, UniProt P10275, T878A).
T1 construct: into the androgen-dependent PCa cells (LNCaP); endogenous in cells; host or cells: LNCaP-ARR2PB-eGFP
T1 sequence (P10275 1-920 T878A): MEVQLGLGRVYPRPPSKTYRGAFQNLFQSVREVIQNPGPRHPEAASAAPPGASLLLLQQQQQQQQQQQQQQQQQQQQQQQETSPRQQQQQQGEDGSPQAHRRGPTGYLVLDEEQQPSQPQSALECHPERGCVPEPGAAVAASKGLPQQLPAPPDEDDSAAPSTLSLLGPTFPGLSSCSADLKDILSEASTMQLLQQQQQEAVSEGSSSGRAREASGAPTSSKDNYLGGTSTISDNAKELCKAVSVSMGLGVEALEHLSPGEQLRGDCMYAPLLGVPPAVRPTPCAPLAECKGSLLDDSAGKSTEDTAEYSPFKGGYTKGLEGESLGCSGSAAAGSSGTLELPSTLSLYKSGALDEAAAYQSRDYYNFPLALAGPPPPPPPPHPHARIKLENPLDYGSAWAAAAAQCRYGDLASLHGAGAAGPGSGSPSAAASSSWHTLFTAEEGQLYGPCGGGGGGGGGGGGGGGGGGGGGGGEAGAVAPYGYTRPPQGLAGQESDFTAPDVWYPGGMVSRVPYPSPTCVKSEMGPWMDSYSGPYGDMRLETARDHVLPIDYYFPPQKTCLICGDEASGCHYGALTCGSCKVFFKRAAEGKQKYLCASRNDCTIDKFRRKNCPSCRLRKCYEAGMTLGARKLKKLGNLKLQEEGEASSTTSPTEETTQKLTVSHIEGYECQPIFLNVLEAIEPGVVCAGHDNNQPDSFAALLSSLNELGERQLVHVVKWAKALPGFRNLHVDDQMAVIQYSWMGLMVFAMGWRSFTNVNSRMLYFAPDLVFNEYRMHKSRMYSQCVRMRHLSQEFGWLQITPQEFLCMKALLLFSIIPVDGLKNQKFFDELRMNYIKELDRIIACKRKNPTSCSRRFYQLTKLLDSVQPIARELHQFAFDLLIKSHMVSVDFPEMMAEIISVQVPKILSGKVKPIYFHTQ
Nature of the experiment: AR transcriptional activity, LNCaP-ARR2PB-eGFP reporter cells. The class given is cell-based. The note with it: read-out: IC50 AR transcriptional activities. The source says:
Detection principles: We conducted a stable transfection of promoter ARR2PB known for its strong AR responsiveness, into the androgen-dependent PCa cells (LNCaP). The expression of enhanced green fluorescent protein (eGFP) is depending on the degree of activation of AR. Therefore, LNCaP-ARR2PB-eGFP cell line could quantitatively determine the AR antagonistic activities of the compounds by evaluating the expression of eGFP.
As for `CCN(CC)C(C)Cc1nsc(NC(=O)c2cc(-c3cccc(C(F)(F)F)c3)sc2C)n1` (centres unmarked) [Compound C-7, N-(3-(2-(diethylamino)propyl)-1,2,4-thiadiazol-5-yl)-2-methyl-5-(3-(trifluoromethyl)phenyl)thiophene-3-carboxamide], the IC50 came out at 10.6 µM. With `Cc1oc(C(=O)Nc2nc(CC(C)N3CCOCC3)ns2)cc1-c1cccc(OC(F)(F)F)c1` (centres unmarked) [Compound F-9, 5-Methyl-N-(3-(2-morpholinopropyl)-1,2,4-thiadiazol-5-yl)-4-(3-(trifluoromethoxy)phenyl)furan-2-carboxamide] the figure was 23.5 µM.

With `CC(F)(F)Cc1nsc(NC(=O)c2coc(-c3cccc(C(F)(F)F)c3)c2)n1` [Compound B-35, N-(3-(2,2-difluoropropyl)-1,2,4-thiadiazol-5-yl)-5-(3-(trifluoromethyl)phenyl)furan-3-carboxamide], the IC50 came to 14.5 µM. With `COc1cccc(-c2cc(C(=O)Nc3nc(CC(C)=O)ns3)c(C)s2)c1` [Compound C-3, 5-(3-Methoxyphenyl)-2-methyl-N-(3-(2-oxopropyl)-1,2,4-thiadiazol-5-yl)thiophene-3-carboxamide] the figure was 43.7 µM; with `CC(Cc1nsc(NC(=O)c2cc(-c3cccc(C(F)(F)F)c3)co2)n1)N1CCCC1` (centres unmarked) [Compound G-6, N-(3-(2-(pyrrolidin-1-yl)propyl)-1,2,4-thiadiazol-5-yl)-4-(3-(trifluoromethyl)phenyl) furan-2-carboxamide], 13.9 µM. Then `Cc1oc(-c2cccc(OC(F)F)c2)cc1C(=O)Nc1nc(CN2CCOCC2)ns1` [Compound A-130, 5-(3-(Difluoromethoxy)phenyl)-2-methyl-N-(3-(morpholinomethyl)-1,2,4-thiadiazol-5-yl)furan-3-carboxamide], with 0.67 µM; and `COc1cccc(-c2cc(C(=O)Nc3nc(CC(C)=O)ns3)co2)c1` [Compound B-3, 5-(3-Methoxyphenyl)-N-(3-(2-oxopropyl)-1,2,4-thiadiazol-5-yl)furan-3-carboxamide], with 12.6 µM. Then `CC(=O)Cc1nsc(NC(=O)c2cc(-c3ccc(Cl)c(Cl)c3)oc2C)n1` [Compound A-10, 5-(3,4-Dichlorophenyl)-2-methyl-N-(3-(2-oxopropyl)-1,2,4-thiadiazol-5-yl)furan-3-carboxamide], with 1.24 µM. For `N#Cc1cccc(-c2coc(C(=O)Nc3nc(CN4CCCCC4)ns3)c2)c1` [Compound G-25, 4-(3-Cyanophenyl)-N-(3-(piperidin-1-ylmethyl)-1,2,4-thiadiazol-5-yl)furan-2-carboxamide], the IC50 was 19.8 µM. With `CC(Cc1nsc(NC(=O)c2csc(-c3cccc(C(F)(F)F)c3)c2)n1)=C(F)F` [Compound D-30, N-(3-(3,3-difluoro-2-methylallyl)-1,2,4-thiadiazol-5-yl)-5-(3-(trifluoromethyl)phenyl)thiophene-3-carboxamide] the figure was 34.8 µM; with `Cc1oc(C(=O)Nc2nc(CC(C)N3CCCC3)ns2)cc1-c1cccc(C(F)(F)F)c1` (centres unmarked) [Compound F-6], 17.9 µM. Turning to `Cc1oc(-c2cccc(C#N)c2)cc1C(=O)Nc1nc(CC(C)N2CCN(C)CC2)ns1` (centres unmarked) [Compound A-56, 5-(3-Cyanophenyl)-2-methyl-N-(3-(2-(4-methylpiperazin-1-yl)propyl)-1,2,4-thiadiazol-5-yl)furan-3-carboxamide], the IC50 was 0.84 µM.

In the case of `CC(F)(F)Cc1nsc(NC(=O)c2csc(-c3cccc(C(F)(F)F)c3)c2)n1` [Compound D-35, N-(3-(2,2-difluoropropyl)-1,2,4-thiadiazol-5-yl)-5-(3-(trifluoromethyl)phenyl)thiophene-3-carboxamide], the IC50 is 49.5 µM. Then `CC(=O)Cc1nsc(NC(=O)c2csc(-c3cccc(C(F)(F)F)c3)c2)n1` [Compound D-1, N-(3-(2-oxopropyl)-1,2,4-thiadiazol-5-yl)-5-(3-(trifluoromethyl)phenyl)thiophene-3-carboxamide], with 25 µM. For the molecule `O=C(Nc1nc(CN2CCCCC2)ns1)c1cc(-c2cccc(OC(F)F)c2)oc1C(F)(F)F` [Compound E-41, 5-(3-(Difluoromethoxy)phenyl)-N-(3-(piperidin-1-ylmethyl)-1,2,4-thiadiazol-5-yl)-2-(trifluoromethyl)furan-3-carboxamide], the IC50 was 0.89 µM.

Turning to `CC(Cc1nsc(NC(=O)c2cc(-c3cccc(OC(F)F)c3)co2)n1)N1CCN(C)CC1` (centres unmarked) [Compound G-10, 4-(3-(Difluoromethoxy)phenyl)-N-(3-(2-(4-methylpiperazin-1-yl)propyl)-1,2,4-thiadiazol-5-yl)furan-2-carboxamide], the IC50 worked out at 15.3 µM. With `CC(Cc1nsc(NC(=O)c2cc(-c3cccc(C(F)(F)F)c3)oc2C(F)(F)F)n1)=C(F)F` [Compound E-22, N-(3-(3,3-difluoro-2-methylallyl)-1,2,4-thiadiazol-5-yl)-2-(trifluoromethyl)-5-(3-(trifluoromethyl)phenyl) furan-3-carboxamide] the figure was 1.46 µM; with `CC(=O)Cc1nsc(NC(=O)c2coc(-c3cccc(C(F)(F)F)c3)c2)n1` [Compound B-1, N-(3-(2-oxopropyl)-1,2,4-thiadiazol-5-yl)-5-(3-(trifluoromethyl)phenyl)furan-3-carboxamide], 18.6 µM. With `CC(=O)Cc1nsc(NC(=O)c2cc(-c3cccc(OC(F)F)c3)sc2C)n1` [Compound C-5, 5-(3-(Difluoromethoxy)phenyl)-2-methyl-N-(3-(2-oxopropyl)-1,2,4-thiadiazol-5-yl)thiophene-3-carboxamide] the figure was 49.3 µM. For `CN1CCN(Cc2nsc(NC(=O)c3cc(-c4cccc(OC(F)(F)F)c4)co3)n2)CC1` [Compound G-27], the IC50 is 26.2 µM. On to `CC(=O)Cc1nsc(NC(=O)c2cc(-c3cccc(OC(F)(F)F)c3)oc2C(F)(F)F)n1` [Compound E-4, N-(3-(2-oxopropyl)-1,2,4-thiadiazol-5-yl)-5-(3-(trifluoromethoxy)phenyl)-2-(trifluoro-methyl)furan-3-carboxamide], for which the IC50 amounted to 0.55 µM. For `Cc1oc(-c2cccc(C#N)c2)cc1C(=O)Nc1nc(CCl)ns1` [Compound A-112, N-(3-(chloromethyl)-1,2,4-thiadiazol-5-yl)-5-(3-cyanophenyl)-2-methylfuran-3-carboxamide], the IC50 was determined as 1.87 µM.

`CCN(CC)Cc1nsc(NC(=O)c2csc(-c3cccc(OC)c3)c2)n1` [Compound D-50, N-(3-((diethylamino)methyl)-1,2,4-thiadiazol-5-yl)-5-(3-methoxyphenyl)thiophene-3-carboxamide]: the 50% inhibitory concentration (IC50) stood at 15 µM. Then `CC(O)Cc1nsc(NC(=O)c2cc(-c3cccc(C(F)(F)F)c3)oc2C(F)(F)F)n1` (centres unmarked) [Compound E-12, N-(3-(2-hydroxypropyl)-1,2,4-thiadiazol-5-yl)-2-(trifluoromethyl)-5-(3-(trifluoromethyl)phenyl)furan-3-carboxamide], with 1.57 µM; and `CC(O)(Cc1nsc(NC(=O)c2cc(-c3cccc(C(F)(F)F)c3)oc2C(F)(F)F)n1)C(F)(F)F` (centres unmarked) [Compound E-17, N-(3-(3,3,3-trifluoro-2-hydroxy-2-methylpropyl)-1,2,4-thiadiazol-5-yl)-2-(trifluoromethyl)-5-(3-(trifluoromethyl)phenyl)furan-3-carboxamide], with 0.79 µM. Then `Cc1sc(-c2cccc(C(F)(F)F)c2)cc1C(=O)Nc1nc(CC(C)O)ns1` (centres unmarked) [Compound C-20, N-(3-(2-hydroxypropyl)-1,2,4-thiadiazol-5-yl)-2-methyl-5-(3-(trifluoromethyl)phenyl)thiophene-3-carboxamide], with 4.52 µM. With `CC(=O)Cc1nsc(NC(=O)c2cc(-c3cccc(F)c3)oc2C)n1` [Compound A-7, 5-(3-Fluorophenyl)-2-methyl-N-(3-(2-oxopropyl)-1,2,4-thiadiazol-5-yl)furan-3-carboxamide] the figure was 1.16 µM; with `CC(=O)Cc1nsc(NC(=O)c2cc(-c3cccc(C#N)c3)oc2C(F)(F)F)n1` [Compound E-2, 5-(3-Cyanophenyl)-N-(3-(2-oxopropyl)-1,2,4-thiadiazol-5-yl)-2-(trifluoromethyl)furan-3-carboxamide], 2.23 µM.

With `CC(Cc1nsc(NC(=O)c2coc(-c3cccc(C(F)(F)F)c3)c2)n1)=C(F)F` [Compound B-30, N-(3-(3,3-difluoro-2-methylallyl)-1,2,4-thiadiazol-5-yl)-5-(3-(trifluoromethyl)phenyl) furan-3-carboxamide], the IC50 is 4.93 µM.

The record behind these values is patent publication US20240376091A1, “THIADIAZOLEAMIDE DERIVATIVES AND THEIR APPLICATIONS” (ZHEJIANG UNIVERSITY, priority 2021, published 2024).
